According to patent US9067937B2 (priority 2012, dated 2015):
Counter-ions that a name gives are not always drawn.

What was measured:
MELK = MELK (Homo sapiens, UniProt Q14680); test: Kinase assay (IMAP fluorescence polarization, FITC-labeled histone H3 peptide); type: biochemical; conditions: 50 micro-M ATP
Summary of the method: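 Kinase (0.8 ng/μL) reacted with 100 nM FITC-histone H3 peptide and 50 μM ATP in 20 mM HEPES, 0.3 mM MgCl2, 2 mM DTT, 0.01% Tween-20, pH 7.4, for 1 hour at room temperature. Phosphorylation read by IMAP fluorescence polarization after adding binding solution; IC50 from four-parameter fit.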

22Rv1 cells = test: Cell-based assay, anti-proliferative activity (Cell Counting Kit-8, 72 hours); parameters: species or system human; conditions: Homo sapiens, 22Rv1, 72 h, read-out: IC50 (μM) (22Rvl)
Summary of the method: (§1)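 Cells seeded at 2,000–3,000 cells/well and exposed to candidate MELK inhibitors for 72 hours; growth measured with Cell Counting Kit-8. IC50 values calculated from the growth read-out.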

A549 cells = test: as above; parameters: species or system human; conditions: Homo sapiens, A549, 72 h, read-out: IC50 (μM) (A549)
Summary of the method: as §1

DU4475 cells = test: as above; parameters: species or system human; conditions: Homo sapiens, DU-4475, 72 h, read-out: IC50 (μM) (DU4475)
Summary of the method: as §1

T47D cells = test: as above; parameters: species or system human; conditions: Homo sapiens, T47D, 72 h, read-out: IC50 (μM) (T47D)
Summary of the method: as §1

HT1197 cells = test: Cell-based assay, anti-proliferative activity, MELK-negative control (Cell Counting Kit-8, 72 hours); parameters: species or system human; conditions: Homo sapiens, HT1197, 72 h, read-out: IC50 (μM) (HTll97)
Protocol: 100 micro-L of cell suspension was seeded onto 96-well microtiter plate (ViewPlate-96FTC, PerkinElmer). The initial cell concentration of 22Rv1, T47D, A549, DU4475, and HT1197 were 3,000 cells/well, 2,000 cells/well and 2,500 cells/well, respectively. Cellular growth was determined using Cell Counting Kit-8 (DOJINDO) at 72 hours after the exposure of the candidate inhibitors. […] Accurate IC50 values were calculated as described previously.

Chain of MELK (Q14680 whole entry, looked up): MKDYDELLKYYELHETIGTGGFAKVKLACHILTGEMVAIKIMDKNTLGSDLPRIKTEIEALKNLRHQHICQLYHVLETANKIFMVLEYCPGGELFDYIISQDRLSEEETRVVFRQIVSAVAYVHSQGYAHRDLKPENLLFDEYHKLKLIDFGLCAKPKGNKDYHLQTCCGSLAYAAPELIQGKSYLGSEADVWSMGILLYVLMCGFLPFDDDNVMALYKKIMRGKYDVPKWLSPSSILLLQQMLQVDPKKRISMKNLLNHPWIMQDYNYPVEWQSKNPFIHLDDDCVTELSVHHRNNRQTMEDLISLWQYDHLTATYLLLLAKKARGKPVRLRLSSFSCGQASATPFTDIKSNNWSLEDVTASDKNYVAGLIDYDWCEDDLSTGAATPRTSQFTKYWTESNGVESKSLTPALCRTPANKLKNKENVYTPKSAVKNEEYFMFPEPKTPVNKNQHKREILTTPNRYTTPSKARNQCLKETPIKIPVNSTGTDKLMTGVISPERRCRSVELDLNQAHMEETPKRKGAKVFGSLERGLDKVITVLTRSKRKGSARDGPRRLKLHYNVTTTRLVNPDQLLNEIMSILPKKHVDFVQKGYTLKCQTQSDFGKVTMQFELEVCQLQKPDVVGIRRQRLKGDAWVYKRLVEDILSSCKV

Structure (SMILES)	IC50 (MELK)	IC50 (22Rv1 cells)	IC50 (A549 cells)	IC50 (DU4475 cells)	IC50 (T47D cells)	IC50 (HT1197 cells)
CC(=O)c1cnc2ccc(-c3cc(Cl)c(O)c(Cl)c3)nc2c1N[C@H]1CC[C@H](CN2CCN(C)CC2)CC1 [Example 63, 1-(6-(3,5-Dichloro-4-hydroxyphenyl)-4-{trans-4-[(4-methylpiperazin-1-yl)methyl]cyclohexyl-amino}-1,5-naphthyridin-3-yl)ethanone trihydrochloride]	0.0008 µM	0.025 µM	0.02 µM	0.0092 µM	0.016 µM	0.13 µM
CC(=O)c1cnc2ccc(-c3cc(Cl)c(O)c(Cl)c3)nc2c1Nc1ccc(N2CCCC(N)C2)nc1 (stereo not drawn) [Example 64, 1-(4-{[6-(3-Aminopiperidin-1-yl)pyridin-3-yl]amino}-6-(3,5-dichloro-4-hydroxyphenyl)-1,5-naphthyridin-3-yl)ethanone trihydrochloride]	0.0012 µM	0.016 µM	0.07 µM	0.016 µM	0.0064 µM	2.9 µM
CC(=O)c1cnc2ccc(-c3cc(F)c(O)c(Cl)c3)nc2c1Nc1ccc(N2CCCC(N)C2)nc1 (stereo not drawn) [Example 65, 1-(4-{[6-(3-Aminopiperidin-1-yl)pyridin-3-yl]amino}-6-(3-chloro-5-fluoro-4-hydroxyphenyl)-1,5-naphthyridin-3-yl)ethanone trihydrochloride]	0.0031 µM	0.013 µM	0.021 µM	0.015 µM	0.0047 µM	0.74 µM
CC(=O)c1cnc2ccc(-c3cc(Cl)c(O)c(Cl)c3)nc2c1N[C@H]1CC[C@H](N)CC1 [Example 66, 1-{4-[trans-(4-Aminocyclohexyl)amino]-6-(3,5-dichloro-4-hydroxyphenyl)-1,5-naphthyridin-3-yl}-ethanone dihydrochloride]	0.0018 µM	0.0045 µM	0.016 µM	0.001 µM	0.0018 µM	10 µM
CC(=O)c1cnc2ccc(-c3cc(F)c(O)c(Cl)c3)nc2c1N[C@H]1CC[C@H](N)CC1 [Example 67, 1-{4-[trans-(4-Aminocyclohexyl)amino]-6-(3-chloro-5-fluoro-4-hydroxyphenyl)-1,5-naphthyridin-3-yl}ethanone dihydrochloride]	0.0012 µM	0.0061 µM	0.022 µM	0.0012 µM	0.0019 µM	2.8 µM
CC(=O)c1cnc2ccc(-c3cc(F)c(O)c(Cl)c3)nc2c1N[C@H]1CC[C@H](CN2CCN(C)CC2)CC1 [Example 68, 1-(6-(3-Chloro-5-fluoro-4-hydroxyphenyl)-4-{trans-4-[4-methylpiperazin-1-yl)methyl]-cyclohexylamino}-1,5-naphthyridin-3-yl)ethanone trihydrochloride]	0.0026 µM	0.039 µM	0.026 µM	0.012 µM	0.012 µM	0.11 µM
CC(=O)c1cnc2ccc(-c3cc(F)c(O)c(Cl)c3)nc2c1N[C@H]1CC[C@H](NC(=O)C(N)C(C)C)CC1 (stereo partly drawn) [Example 69, N-(trans-4-{[3-Acetyl-6-(3-chloro-5-fluoro-4-hydroxyphenyl)-1,5-naphthyridin-4-yl]amino}-cyclohexyl)-2-amino-3-methylbutanamide dihydrochloride]	0.0012 µM	0.025 µM	0.064 µM	0.013 µM	0.007 µM	2.5 µM
CC(=O)c1cnc2ccc(-c3cc(Cl)c(O)c(Cl)c3)nc2c1N[C@H]1CC[C@H](CN2CCNCC2)CC1 [Example 70, 1-{6-(3,5-Dichloro-4-hydroxyphenyl)-4-[trans-4-(piperazin-1-ylmethyl)cyclohexylamino]-1,5-naphthyridin-3-yl}ethanone trihydrochloride]	0.0006 µM	0.031 µM	0.084 µM	0.011 µM	0.021 µM	3.9 µM
CC(=O)c1cnc2ccc(-c3cc(Cl)c(O)c(Cl)c3)nc2c1Nc1ccc(N2CCC[C@H](N)C2)nc1 [Example 71, (S)-1-(4-{[6-(3-Aminopiperidin-1-yl)pyridin-3-yl]amino}-6-(3,5-dichloro-4-hydroxyphenyl)-1,5-naphthyridin-3-yl)ethanone trihydrochloride]	0.0005 µM	0.014 µM	0.09 µM	0.008 µM	0.0074 µM	3.4 µM
CC(=O)c1cnc2ccc(-c3cc(F)c(O)c(Cl)c3)nc2c1Nc1ccc(N2CCC[C@H](N)C2)nc1 [Example 72, (S)-1-(4-{[6-(3-Aminopiperidin-1-yl)pyridin-3-yl]amino}-6-(3-chloro-5-fluoro-4-hydroxy-phenyl)-1,5-naphthyridin-3-yl)ethanone trihydrochloride]	0.0043 µM	0.014 µM	0.047 µM	0.014 µM	0.0053 µM	1.2 µM
CC(=O)c1cnc2ccc(-c3cc(Cl)c(O)c(Cl)c3)nc2c1N[C@H]1CC[C@H](NC(=O)C(C)N)CC1 (stereo partly drawn) [Example 73, N-{trans-4-[3-Acetyl-6-(3,5-dichloro-4-hydroxyphenyl)-1,5-naphthyridin-4-ylamino]-cyclohexyl}-2-aminopropanamide dihydrochloride]	0.0075 µM	0.027 µM	0.18 µM	0.0043 µM	0.0086 µM	100 µM
CC(=O)c1cnc2ccc(-c3cc(F)c(O)c(Cl)c3)nc2c1N[C@H]1CC[C@H](NC(=O)C(C)N)CC1 (stereo partly drawn) [Example 74, N-{4-[3-Acetyl-6-(3-chloro-5-fluoro-4-hydroxyphenyl)-1,5-naphthyridin-trans-4-ylamino]-cyclohexyl}-2-aminopropanamide dihydrochloride]	0.0026 µM	0.025 µM	0.13 µM	0.0036 µM	0.0043 µM	100 µM
CC(=O)c1cnc2ccc(-c3cc(Cl)c(O)c(Cl)c3)nc2c1N[C@H]1CC[C@H](NC(=O)[C@@H]2CCCN2)CC1 [Example 75, (S)—N-{4-[3-Acetyl-6-(3,5-dichloro-4-hydroxyphenyl)-1,5-naphthyridin-trans-4-ylamino]-cyclohexyl}pyrrolidine-2-carboxamide dihydrochloride]	0.001 µM	0.099 µM	0.21 µM	0.021 µM	0.036 µM	8.4 µM
CC(=O)c1cnc2ccc(N3CCC(O)C3)nc2c1N[C@H]1CC[C@H](CN2CCC(O)C2)CC1 (stereo partly drawn) [Example 77, 1-(6-(3-Hydroxypyrrolidin-1-yl)-4-{trans-4-[(3-hydroxypyrrolidin-1-yl)methyl]-cyclohexylamino}-1,5-naphthyridin-3-yl)ethanone]	0.74 µM	10 µM	10 µM	10 µM	10 µM	10 µM
CC(=O)c1cnc2ccc(N3CCCC3)nc2c1N[C@H]1CC[C@H](CN2CCCC2)CC1 [Example 78, 1-{6-(Pyrrolidin-1-yl)-4-[trans-4-(pyrrolidin-1-ylmethyl)cyclohexylamino]-1,5-naphthyridin-3-yl}ethanone]	2 µM	5.6 µM	6.8 µM	7.7 µM	5.4 µM	9.8 µM
CC(=O)c1cnc2ccc(-c3cc(Cl)c(O)c(Cl)c3)nc2c1N[C@H]1CC[C@H](NC(=O)C(N)C(C)C)CC1 (stereo partly drawn) [Example 79, N-{trans-4-[3-Acetyl-6-(3,5-dichloro-4-hydroxyphenyl)-1,5-naphthyridin-4-ylamino]-cyclohexyl}-2-amino-3-methylbutanamide dihydrochloride]	0.0016 µM	0.038 µM	0.11 µM	0.016 µM	0.018 µM	3.9 µM
CN(C)[C@H]1CC[C@H](Nc2c(C(=O)C3CC3)cnc3ccc(-c4cc(Cl)c(O)c(Cl)c4)nc23)CC1 [Example 80, Cyclopropyl {6-(3,5-dichloro-4-hydroxyphenyl)-4-[trans-4-(dimethylamino)-cyclohexylamino]-1,5-naphthyridin-3-yl}methanone dihydrochloride]	0.0006 µM	0.0052 µM	0.0076 µM	0.002 µM	0.0041 µM	0.084 µM
CC(=O)c1cnc2ccc(-c3cnc4[nH]ccc4c3)nc2c1N[C@H]1CC[C@H](CN(C)C)CC1 [Example 82, 1-(4-{trans-4-[(Dimethylamino)methyl]cyclohexylamino}-6-(1H-pyrrolo[2,3-b]pyridin-5-yl)-1,5-naphthyridin-3-yl)ethanone trihydrochloride]	0.013 µM	0.37 µM	0.33 µM	0.65 µM	0.32 µM	2.3 µM
